{"source": "patent US8618153B2", "about": "“Hepatitis C virus inhibitors” (Bristol-Myers Squibb Company, priority 2009, dated 2013)", "data": [{"tested_on": "HCV 1b genotype", "test": "HCV Replicon assay (HCV-neo replicon cells), 1b genotype", "format": "cell-based", "conditions": "Hepatitis C virus; HCV 1b genotype replicon; numeric value; read-out: 1b EC50 (in μM or range)", "method": "(§1) An HCV Replicon assay was utilized in the present disclosure, and was prepared, conducted and validated as described in commonly owned PCT/US2006/022197 and in O'Boyle et al., Antimicrob. Agents Chemother., 49(4):1346-1353 (April 2005). Assay methods incorporating luciferase reporters have also been used as described (Apath.com).\n(§2) HCV-neo replicon cells and replicon cells containing mutations in the NS5A region were used to test the currently described family of compounds. The compounds were determined to have more than 10-fold less inhibitory activity on cells containing mutations than wild-type cells. Thus, the compounds of the present disclosure can be effective in inhibiting the function of the HCV NS5A protein and are understood to be as effective in combinations as previously described in application PCT/US2006/022197 and commonly owned WO 04/014852. Further, the compounds of the present disclosure can be effective against the HCV 1b genotype. It should also be understood that the compounds of the present disclosure can inhibit multiple genotypes of HCV. […] In one embodiment compounds of the present disclosure are inhibitory versus 1a, 1b, 2a, 2b, 3a, 4a, and 5a genotypes. […] The compounds of the present disclosure may inhibit HCV by mechanisms in addition to or other than NS5A inhibition. In one embodiment the compounds of the present disclosure inhibit HCV replicon and in another embodiment the compounds of the present disclosure inhibit NS5A.", "units": {"EC50": "µM"}, "values": [{"smiles": "COCC[C@H](NC(=O)OC)C(=O)N1CCC[C@H]1c1ncc(-c2cnc(-c3ncc(-c4cnc([C@@H]5CCCN5C(=O)[C@H](CCOC)NC(=O)OC)[nH]4)s3)s2)[nH]1", "note": "[Example 15, Methyl ((1S)-3-methoxy-1-(((2S)-2-(4-(5′-(2-((2S)-1-(N-(methoxycarbonyl)-O-methyl-L-homoseryl)-2-pyrrolidinyl)-1H-imidazol-4-yl)-2,2′-bi-1,3-thiazol-5-yl)-1H-imidazol-2-yl)-1-pyrrolidinyl)carbonyl)propyl)carbamate]", "EC50": 0.00238}, {"smiles": "COC(=O)N[C@@H](C(=O)N1CCC[C@H]1c1ncc(-c2ncc(-c3cnc(-c4cnc([C@@H]5CCCN5C(=O)[C@H](NC(=O)OC)C(C)C)[nH]4)s3)s2)[nH]1)C(C)C", "note": "[Example 11, Methyl ((1R)-1-(((2S)-2-(4-(2′-(2-((2S)-1-((2R)-2-((methoxycarbonyl)amino)-3-methylbutanoyl)-2-pyrrolidinyl)-1H-imidazol-4-yl)-5,5′-bi-1,3-thiazol-2-yl)-1H-imidazol-2-yl)-1-pyrrolidinyl)carbonyl)-2-methylpropyl)carbamate]", "EC50": 5.86}, {"smiles": "COC(=O)N[C@@H](C)C(=O)N1CCC[C@H]1c1nc(CCc2ccc(CCc3cnc([C@@H]4CCCN4C(=O)[C@H](C)NC(=O)OC)[nH]3)cc2)c[nH]1", "note": "[Example 42, methyl ((1S)-2-((2S)-2-(4-(2-(4-(2-(2-((2S)-1-(N-(methoxycarbonyl)-L-alanyl)-2-pyrrolidinyl)-1H-imidazol-4-yl)ethyl)phenyl)ethyl)-1H-imidazol-2-yl)-1-pyrrolidinyl)-1-methyl-2-oxoethyl)carbamate]", "EC50": 0.274}]}, {"tested_on": "HCV 1b genotype", "test": "HCV Replicon assay (HCV-neo replicon cells), 1b genotype", "format": "cell-based", "conditions": "Hepatitis C virus; HCV 1b genotype replicon; value given as range class; read-out: 1b EC50 (in μM or range)", "method": "as §1, §2", "units": {"EC50": "µM"}, "values": [{"smiles": "COC(=O)N[C@@H](C(=O)N1CCC[C@H]1c1ncc(CCc2ccc(-c3cnc([C@@H]4CCCN4C(=O)[C@H](NC(=O)OC)c4ccccc4)[nH]3)cc2)[nH]1)c1ccccc1", "note": "[Example M2, Methyl ((1R)-2-((2S)-2-(4-(4-(2-(2-((2S)-1-((2R)-2-((methoxycarbonyl)amino)-2-phenylacetyl)-2-pyrrolidinyl)-1H-imidazol-4-yl)ethyl)phenyl)-1H-imidazol-2-yl)-1-pyrrolidinyl)-2-oxo-1-phenylethyl)carbamate]", "EC50": "< 0.001"}, {"smiles": "COC(=O)N[C@@H](C(=O)N1CCC[C@H]1c1nc(-c2ncc(-c3cccc(-c4cnc([C@@H]5CCCN5C(=O)[C@H](NC(=O)OC)c5ccccc5)[nH]4)c3)o2)c[nH]1)c1ccccc1", "note": "[Example 21, Methyl ((1R)-2-((2S)-2-(4-(3-(2-(2-((2S)-1-((2R)-2-((methoxycarbonyl)amino)-2-phenylacetyl)-2-pyrrolidinyl)-1H-imidazol-4-yl)-1,3-oxazol-5-yl)phenyl)-1H-imidazol-2-yl)-1-pyrrolidinyl)-2-oxo-1-phenylethyl)carbamate]", "EC50": "< 0.001"}, {"smiles": "CN(C)[C@@H](C(=O)N1CCC[C@H]1c1ncc(-c2ccc(-c3ccc(-c4cnc([C@@H]5CCCN5C(=O)[C@@H](c5ccccc5)N(C)C)[nH]4)s3)s2)[nH]1)c1ccccc1", "note": "[Example 5, (1R′,1′R)-2,2′-(2,2′-Bithiene-5,5′-diylbis(1H-imidazole-4,2-diyl(2S)-2,1-pyrrolidinediyl))bis(N,N-dimethyl-2-oxo-1-phenylethanamine)]", "EC50": "< 0.001"}, {"smiles": "COC(=O)N[C@H](C(=O)N1CCC[C@H]1c1nc(CCc2ccc(CCc3cnc([C@@H]4CCCN4C(=O)[C@@H](NC(=O)OC)[C@@H](C)OC)[nH]3)cc2)c[nH]1)[C@@H](C)OC", "note": "[Example 44, methyl ((1S,2R)-2-methoxy-1-(((2S)-2-(4-(2-(4-(2-(2-((2S)-1-(N-(methoxycarbonyl)-O-methyl-L-threonyl)-2-pyrrolidinyl)-1H-imidazol-4-yl)ethyl)phenyl)ethyl)-1H-imidazol-2-yl)-1-pyrrolidinyl)carbonyl)propyl)carbamate]", "EC50": "0.01 to 10"}, {"smiles": "COC(=O)N[C@H](C(=O)N1CCC[C@H]1c1ncc(-c2cnc(-c3ncc(-c4cnc([C@@H]5CCCN5C(=O)[C@@H](NC(=O)OC)[C@@H](C)OC)[nH]4)s3)s2)[nH]1)[C@@H](C)OC", "note": "[Example 19, Methyl ((1S,2R)-2-methoxy-1-(((2S)-2-(4-(5′-(2-((2S)-1-(N-(methoxycarbonyl)-O-methyl-L-threonyl)-2-pyrrolidinyl)-1H-imidazol-4-yl)-2,2′-bi-1,3-thiazol-5-yl)-1H-imidazol-2-yl)-1-pyrrolidinyl)carbonyl)propyl)carbamate]", "EC50": "0.001 to 0.01"}, {"smiles": "COC(=O)N[C@@H](C(=O)N1CCC[C@H]1c1ncc(-c2ccc(-c3ccc(-c4cnc([C@@H]5CCCN5C(=O)[C@H](NC(=O)OC)c5ccccc5)[nH]4)s3)s2)[nH]1)c1ccccc1", "note": "[Example 4, Dimethyl (2,2′-bithiene-5,5′-diylbis(1H-imidazole-4,2-diyl(2S)-2,1-pyrrolidinediyl((1R)-2-oxo-1-phenyl-2,1-ethanediyl)))biscarbamate]", "EC50": "< 0.001"}, {"smiles": "COCC[C@H](NC(=O)OC)C(=O)N1CCC[C@H]1c1ncc(-c2ncc(-c3cnc(-c4cnc([C@@H]5CCCN5C(=O)[C@H](CCOC)NC(=O)OC)[nH]4)s3)s2)[nH]1", "note": "[Example 13, Methyl ((1S)-3-methoxy-1-(((2S)-2-(4-(2′-(2-((2S)-1-(N-(methoxycarbonyl)-O-methyl-L-homoseryl)-2-pyrrolidinyl)-1H-imidazol-4-yl)-5,5′-bi-1,3-thiazol-2-yl)-1H-imidazol-2-yl)-1-pyrrolidinyl)carbonyl)propyl)carbamate]", "EC50": "0.01 to 10"}, {"smiles": "COC(=O)N[C@H](C(=O)N1[C@@H]2C[C@@H]2C[C@H]1c1ncc(C#CC#Cc2cnc([C@@H]3C[C@H]4C[C@H]4N3C(=O)[C@@H](NC(=O)OC)C3CCOCC3)[nH]2)[nH]1)C1CCOCC1", "note": "[Example 34, Dimethyl (1,3-butadiyne-1,4-diylbis(1H-imidazole-4,2-diyl(1R,3S,5R)-2-azabicyclo[3.1.0]hexane-3,2-diyl((1S)-2-oxo-1-(tetrahydro-2H-pyran-4-yl)-2,1-ethanediyl)))biscarbamate]", "EC50": "0.001 to 0.01"}, {"smiles": "COCC[C@H](NC(=O)OC)C(=O)N1CCC[C@H]1c1ncc(-c2ccc(-c3ccc(-c4cnc([C@@H]5CCCN5C(=O)[C@H](CCOC)NC(=O)OC)[nH]4)s3)s2)[nH]1", "note": "[Example 2, Methyl ((1S)-3-methoxy-1-(((2S)-2-(4-(5′-(2-((2S)-1-(N-(methoxycarbonyl)-O-methyl-L-homoseryl)-2-pyrrolidinyl)-1H-imidazol-4-yl)-2,2′-bithiophen-5-yl)-1H-imidazol-2-yl)-1-pyrrolidinyl)carbonyl)propyl)carbamate]", "EC50": "< 0.001"}, {"smiles": "CCN(CC)[C@@H](C(=O)N1CCC[C@H]1c1nc(CCc2ccc(CCc3cnc([C@@H]4CCCN4C(=O)[C@@H](c4ccccc4)N(CC)CC)[nH]3)cc2)c[nH]1)c1ccccc1", "note": "[Example 40, (1R)-2-((2S)-2-(4-(2-(4-(2-(2-((2S)-1-((2R)-2-(diethylamino)-2-phenylacetyl)-2-pyrrolidinyl)-1H-imidazol-5-yl)ethyl)phenyl)ethyl)-1H-imidazol-2-yl)-1-pyrrolidinyl)-N,N-diethyl-2-oxo-1-phenylethanamine]", "EC50": "< 0.001"}, {"smiles": "COC(=O)N[C@H](C(=O)N1CCC[C@H]1c1nc(C#Cc2ccc(C#Cc3c[nH]c([C@@H]4CCCN4C(=O)[C@@H](NC(=O)OC)[C@@H](C)OC)n3)cc2)c[nH]1)[C@@H](C)OC", "note": "[Example M5, Methyl ((1S,2R)-2-methoxy-1-(((2S)-2-(4-((4-((2-((2S)-1-(N-(methoxycarbonyl)-O-methyl-L-threonyl)-2-pyrrolidinyl)-1H-imidazol-4-yl)ethynyl)phenyl)ethynyl)-1H-imidazol-2-yl)-1-pyrrolidinyl)carbonyl)propyl)carbamate]", "EC50": "< 0.001"}, {"smiles": "COC(=O)N[C@@H](C)C(=O)N1CCC[C@H]1c1ncc(C#CC#Cc2cnc([C@@H]3CCCN3C(=O)[C@H](C)NC(=O)OC)[nH]2)[nH]1", "note": "[Example 32, Dimethyl (2S,2′S)-1,1′-((2S,2′S)-2,2′-(5,5′-(buta-1,3-diyne-1,4-diyl)bis(1H-imidazole-5,2-diyl))bis(pyrrolidine-2,1-diyl))bis(1-oxopropane-2,1-diyl)dicarbamate]", "EC50": "0.01 to 10"}, {"smiles": "COC(=O)N[C@@H](C(=O)N1CCC[C@H]1c1ncc(-c2ncc(-c3cnc(-c4cnc([C@@H]5CCCN5C(=O)[C@H](NC(=O)OC)c5ccccc5)[nH]4)s3)s2)[nH]1)c1ccccc1", "note": "[Example 9, Dimethyl (5,5′-bi-1,3-thiazole-2,2′-diylbis(1H-imidazole-4,2-diyl(2S)-2,1-pyrrolidinediyl((1R)-2-oxo-1-phenyl-2,1-ethanediyl)))biscarbamate]", "EC50": "< 0.001"}, {"smiles": "COC(=O)N[C@@H](C(=O)N[C@@H](C)c1ncc(-c2cccc(-c3cnc(-c4c[nH]c([C@@H]5CCCN5C(=O)[C@H](NC(=O)OC)c5ccccc5)n4)o3)c2)[nH]1)c1ccccc1", "note": "[Example 23, Methyl ((1R)-2-((2S)-2-(4-(5-(3-(2-((1S)-1-(((2R)-2-((methoxycarbonyl)amino)-2-phenylacetyl)amino)ethyl)-1H-imidazol-4-yl)phenyl)-1,3-oxazol-2-yl)-1H-imidazol-2-yl)-1-pyrrolidinyl)-2-oxo-1-phenylethyl) carbamate]", "EC50": "0.001 to 0.01"}, {"smiles": "COC(=O)N[C@@H](C(=O)N1CCC[C@H]1c1ncc(C#Cc2ccc(-c3cnc([C@@H]4CCCN4C(=O)[C@H](NC(=O)OC)c4ccccc4)[nH]3)cc2)[nH]1)c1ccccc1", "note": "[Example M1, Methyl ((1R)-2-((2S)-2-(4-(4-((2-((2S)-1-((2R)-2-((methoxycarbonyl)amino)-2-phenylacetyl)-2-pyrrolidinyl)-1H-imidazol-4-yl)ethynyl)phenyl)-1H-imidazol-2-yl)-1-pyrrolidinyl)-2-oxo-1-phenylethyl)carbamate]", "EC50": "< 0.001"}]}]}
